According to patent US5919756A, “Amides” (Eli Lilly and Company, priority 1997, dated 1999):
Values after ≈ are worked out from the molar mass of the structure shown.

Columns and labels:
Format in all cases: cell-based
[1] = test system: Enterococcus, Resistant (4-6 isolates); assay: Enterococcus screen, broth micro-dilution MIC, resistant isolates; parameters: unit not given here; conditions: mean of 4-6 isolates
Experimental: (§1) The antibacterial efficacy of the present compounds is illustrated in TABLE 2. The minimal inhibitory concentrations (MICs) were determined using a standard broth micro-dilution assay.

[2] = test system: Enterococcus, Sensitive (4-6 isolates); assay: Enterococcus screen, broth micro-dilution MIC, sensitive isolates; parameters: unit not given here; conditions: mean of 4-6 isolates
Experimental: as §1

[3] = test system: Staphylococcus aureus 446; assay: Broth micro-dilution MIC, SA 446; conditions: unit assumed
Experimental: as §1

[4] = test system: Staphylococcus aureus 489; assay: Broth micro-dilution MIC, SA 489; conditions: unit assumed
Experimental: as §1

[5] = test system: Staphylococcus aureus 447; assay: Broth micro-dilution MIC, SA 447; conditions: unit assumed
Experimental: as §1

[6] = test system: Staphylococcus haemolyticus 105; assay: Broth micro-dilution MIC, SH 105; conditions: unit assumed
Experimental: as §1

[7] = test system: Staphylococcus haemolyticus 415; assay: Broth micro-dilution MIC, SH 415; conditions: unit assumed
Experimental: as §1

[8] = test system: Staphylococcus epidermis 270; assay: Broth micro-dilution MIC, SE 270; conditions: unit assumed
Experimental: as §1

[9] = test system: Streptococcus pneumoniae P1; assay: Broth micro-dilution MIC, S PN P1; conditions: unit assumed
Experimental: as §1

[10] = test system: Streptococcus pyogenes 203; assay: Broth micro-dilution MIC, S PY 203; conditions: unit assumed
Experimental: as §1

Minimum Inhibitory Concentrations (MICs), Mean Values of 4-6 Isolates, Resistant [1] | Minimum Inhibitory Concentrations (MICs), Mean Values of 4-6 Isolates, Sensitive [2] | MIC, SA 446 [3] | MIC, SA 489 [4] | MIC, SA 447 [5] | MIC, SE270 [8] | MIC, S PN P1 [9] | MIC, S PY 203 [10] | Compound | MIC, SH105 [6] | MIC, SH415 [7]
0.84 | 0.19 | 1 µg/mL | 2 µg/mL | 1 µg/mL | 1 µg/mL | ≤ 0.06 µg/mL | ≤ 0.06 µg/mL | CNC(CC(C)C)C(=O)NC1C(=O)NC(CC(N)=O)C(=O)NC2C(=O)NC3C(=O)NC(C(=O)NC(C(=O)NCCc4ccccc4)c4cc(O)cc(O)c4-c4cc3ccc4O)C(OC3CC(C)(N)C(O)C(C)O3)c3ccc(c(Cl)c3)Oc3cc2cc(c3OC2OC(CO)C(O)C(O)C2OC2CC(C)(NCc3ccc(-c4ccccc4)cc3)C(O)C(C)O2)Oc2ccc(cc2Cl)C1O.Cl (stereo not drawn) [Example 18, N^4-(4-phenylbenzyl)A82846B, phenethylamide, HCl salt] | 2 µg/mL | 2 µg/mL
1 | 0.22 | 2 µg/mL (≈ 1.07 µM) | 2 µg/mL (≈ 1.07 µM) | 4 µg/mL (≈ 2.13 µM) | 2 µg/mL (≈ 1.07 µM) | ≤ 0.06 µg/mL | ≤ 0.06 µg/mL | CNC(CC(C)C)C(=O)NC1C(=O)NC(CC(N)=O)C(=O)NC2C(=O)NC3C(=O)NC(C(=O)NC(C(=O)NCCc4ccccc4)c4cc(O)cc(O)c4-c4cc3ccc4O)C(OC3CC(C)(N)C(O)C(C)O3)c3ccc(c(Cl)c3)Oc3cc2cc(c3OC2OC(CO)C(O)C(O)C2OC2CC(C)(NCc3ccc(-c4ccc(C)cc4)cc3)C(O)C(C)O2)Oc2ccc(cc2Cl)C1O (stereo not drawn) [Example 19, N^4-(4-(4-methylphenyl)benzyl)-A82846B, phenethylamide] | 2 µg/mL (≈ 1.07 µM) | 4 µg/mL (≈ 2.13 µM)
11 | 0.22 | 0.125 µg/mL (≈ 0.0731 µM) | ≤ 0.06 µg/mL | ≤ 0.06 µg/mL | ≤ 0.06 µg/mL | ≤ 0.06 µg/mL | ≤ 0.06 µg/mL | CNC(CC(C)C)C(=O)NC1C(=O)NC(CC(N)=O)C(=O)NC2C(=O)NC3C(=O)NC(C(=O)NC(C(=O)NCCCc4ccccc4)c4cc(O)cc(O)c4-c4cc3ccc4O)C(OC3CC(C)(N)C(O)C(C)O3)c3ccc(c(Cl)c3)Oc3cc2cc(c3OC2OC(CO)C(O)C(O)C2OC2CC(C)(N)C(O)C(C)O2)Oc2ccc(cc2Cl)C1O (stereo not drawn) [Example 20, A82846B, (3-phenyl-n-propyl) amide] | 0.125 µg/mL (≈ 0.0731 µM) | 0.25 µg/mL (≈ 0.146 µM)
1.2 | 0.054 | 4 µg/mL (≈ 2.17 µM) | 2 µg/mL (≈ 1.09 µM) | 2 µg/mL (≈ 1.09 µM) | 0.5 µg/mL (≈ 0.271 µM) | ≤ 0.06 µg/mL | ≤ 0.06 µg/mL | CNC(CC(C)C)C(=O)NC1C(=O)NC(CC(N)=O)C(=O)NC2C(=O)NC3C(=O)NC(C(=O)NC(C(=O)NCCCN(C)C)c4cc(O)cc(O)c4-c4cc3ccc4O)C(OC3CC(C)(N)C(O)C(C)O3)c3ccc(c(Cl)c3)Oc3cc2cc(c3OC2OC(CO)C(O)C(O)C2OC2CC(C)(NCc3ccc(-c4ccccc4)cc3)C(O)C(C)O2)Oc2ccc(cc2Cl)C1O (stereo not drawn) [Example 21, N^4-(4-phenylbenzyl)A82846B, (3-(dimethylamino)-n-propyl) amide] | 0.5 µg/mL (≈ 0.271 µM) | 2 µg/mL (≈ 1.09 µM)
1.68 | 0.87 | 32 µg/mL (≈ 16.4 µM) | 32 µg/mL (≈ 16.4 µM) | 32 µg/mL (≈ 16.4 µM) | 16 µg/mL (≈ 8.2 µM) | 0.125 µg/mL (≈ 0.064 µM) | 0.125 µg/mL (≈ 0.064 µM) | CNC(CC(C)C)C(=O)NC1C(=O)NC(CC(N)=O)C(=O)NC2C(=O)NC3C(=O)NC(C(=O)NC(C(=O)NCCC(c4ccccc4)c4ccccc4)c4cc(O)cc(O)c4-c4cc3ccc4O)C(OC3CC(C)(N)C(O)C(C)O3)c3ccc(c(Cl)c3)Oc3cc2cc(c3OC2OC(CO)C(O)C(O)C2OC2CC(C)(NCc3ccc(-c4ccccc4)cc3)C(O)C(C)O2)Oc2ccc(cc2Cl)C1O (stereo not drawn) [Example 22, N^4-(4-phenylbenzyl)A82846B, (3,3-diphenyl-n-propyl) amide] | 8 µg/mL (≈ 4.1 µM) | 8 µg/mL (≈ 4.1 µM)

More lines, now with the values behind:

Compound | Minimum Inhibitory Concentrations (MICs), Mean Values of 4-6 Isolates, Resistant [1] | Minimum Inhibitory Concentrations (MICs), Mean Values of 4-6 Isolates, Sensitive [2] | MIC, SA 446 [3] | MIC, SA 489 [4] | MIC, SA 447 [5] | MIC, SE270 [8] | MIC, S PN P1 [9] | MIC, S PY 203 [10] | MIC, SH105 [6] | MIC, SH415 [7]
CNC(CC(C)C)C(=O)NC1C(=O)NC(CC(N)=O)C(=O)NC2C(=O)NC3C(=O)NC(C(=O)NC(C(=O)NCc4ccccc4)c4cc(O)cc(O)c4-c4cc3ccc4O)C(OC3CC(C)(N)C(O)C(C)O3)c3ccc(c(Cl)c3)Oc3cc2cc(c3OC2OC(CO)C(O)C(O)C2OC2CC(C)(NCc3ccc(-c4ccccc4)cc3)C(O)C(C)O2)Oc2ccc(cc2Cl)C1O (stereo not drawn) [Example 10, N^4-(4-phenylbenzyl)A82846B, benzylamide] | 0.84 | 0.14 | 1 µg/mL (≈ 0.541 µM) | 4 µg/mL (≈ 2.16 µM) | 2 µg/mL (≈ 1.08 µM) | 0.5 µg/mL (≈ 0.271 µM) | ≤ 0.06 µg/mL | ≤ 0.06 µg/mL | 0.5 µg/mL (≈ 0.271 µM) | 4 µg/mL (≈ 2.16 µM)
CNC(CC(C)C)C(=O)NC1C(=O)NC(CC(N)=O)C(=O)NC2C(=O)NC3C(=O)NC(C(=O)NC(C(=O)NCc4ccccc4)c4cc(O)cc(O)c4-c4cc3ccc4O)C(OC3CC(C)(N)C(O)C(C)O3)c3ccc(c(Cl)c3)Oc3cc2cc(c3OC2OC(CO)C(O)C(O)C2OC2CC(C)(NCc3ccc(-c4ccccc4)cc3)C(O)C(C)O2)Oc2ccc(cc2Cl)C1O.Cl (stereo not drawn) [Example 11, N^4-(4-phenylbenzyl)A82846B, benzylamide, HCl salt] | 1 | 0.11 | 4 µg/mL | 1 µg/mL | 1 µg/mL | 1 µg/mL | ≤ 0.06 µg/mL | ≤ 0.06 µg/mL | 1 µg/mL | 1 µg/mL
CNC(CC(C)C)C(=O)NC1C(=O)NC(CC(N)=O)C(=O)NC2C(=O)NC3C(=O)NC(C(=O)NC(C(=O)NCc4ccc(OC)cc4)c4cc(O)cc(O)c4-c4cc3ccc4O)C(OC3CC(C)(N)C(O)C(C)O3)c3ccc(c(Cl)c3)Oc3cc2cc(c3OC2OC(CO)C(O)C(O)C2OC2CC(C)(NCc3ccc(-c4ccccc4)cc3)C(O)C(C)O2)Oc2ccc(cc2Cl)C1O.O=C(O)C(F)(F)F (stereo not drawn) [Example 12, N^4-(4-phenylbenzyl)A82846B, (4-methoxybenzyl) amide, trifluoroacetate salt] | 1.7 | 0.13 | 2 µg/mL | 0.5 µg/mL | 1 µg/mL | 2 µg/mL | ≤ 0.06 µg/mL | ≤ 0.06 µg/mL | 1 µg/mL | 4 µg/mL
CNC(CC(C)C)C(=O)NC1C(=O)NC(CC(N)=O)C(=O)NC2C(=O)NC3C(=O)NC(C(=O)NC(C(=O)NCCCOC)c4cc(O)cc(O)c4-c4cc3ccc4O)C(OC3CC(C)(N)C(O)C(C)O3)c3ccc(c(Cl)c3)Oc3cc2cc(c3OC2OC(CO)C(O)C(O)C2OC2CC(C)(NCc3ccc(-c4ccccc4)cc3)C(O)C(C)O2)Oc2ccc(cc2Cl)C1O (stereo not drawn) [Example 13, N^4-(4-phenylbenzyl)A82846B, (3-methoxypropyl)amide] | 1.4 | 0.072 | 1 µg/mL (≈ 0.547 µM) | 1 µg/mL (≈ 0.547 µM) | 1 µg/mL (≈ 0.547 µM) | 1 µg/mL (≈ 0.547 µM) | ≤ 0.06 µg/mL | ≤ 0.06 µg/mL | 2 µg/mL (≈ 1.09 µM) | 0.5 µg/mL (≈ 0.273 µM)
CCCCc1ccc(CNC2(C)CC(OC3C(Oc4c5cc6cc4Oc4ccc(cc4Cl)C(OC4CC(C)(N)C(O)C(C)O4)C4NC(=O)C(NC(=O)C6NC(=O)C(CC(N)=O)NC(=O)C(NC(=O)C(CC(C)C)NC)C(O)c6ccc(c(Cl)c6)O5)c5ccc(O)c(c5)-c5c(O)cc(O)cc5C(C(=O)NCCc5ccccc5)NC4=O)OC(CO)C(O)C3O)OC(C)C2O)cc1.O=C(O)C(F)(F)F (stereo not drawn) [Example 15, N^4-(4-n-butylbenzyl)A82846B, phenethylamide, trifluoroacetate salt] | 1.7 | 0.22 | 2 µg/mL | 2 µg/mL | 2 µg/mL | 2 µg/mL | ≤ 0.06 µg/mL | ≤ 0.06 µg/mL | 1 µg/mL | 2 µg/mL
CNC(CC(C)C)C(=O)NC1C(=O)NC(CC(N)=O)C(=O)NC2C(=O)NC3C(=O)NC(C(=O)NC(C(=O)NCCCN(C)C)c4cc(O)cc(O)c4-c4cc3ccc4O)C(OC3CC(C)(N)C(O)C(C)O3)c3ccc(c(Cl)c3)Oc3cc2cc(c3OC2OC(CO)C(O)C(O)C2OC2CC(C)(N)C(O)C(C)O2)Oc2ccc(cc2Cl)C1O.O=C(O)C(F)(F)F (stereo not drawn) [Example 23, A82846B, (3-(dimethylamino)-n-propyl)amide, trifluoroacetate salt] | > 128 | 0.44 | 0.125 µg/mL | ≤ 0.06 µg/mL | 0.125 µg/mL | ≤ 0.06 µg/mL | ≤ 0.06 µg/mL | ≤ 0.06 µg/mL | ≤ 0.06 µg/mL | ≤ 0.06 µg/mL
CNC(CC(C)C)C(=O)NC1C(=O)NC(CC(N)=O)C(=O)NC2C(=O)NC3C(=O)NC(C(=O)NC(C(=O)NCc4ccccc4)c4cc(O)cc(O)c4-c4cc3ccc4O)C(OC3CC(C)(N)C(O)C(C)O3)c3ccc(c(Cl)c3)Oc3cc2cc(c3OC2OC(CO)C(O)C(O)C2OC2CC(C)(N)C(O)C(C)O2)Oc2ccc(cc2Cl)C1O.O=C(O)C(F)(F)F (stereo not drawn) [Example 24, A82846B, benzylamide, trifluoroacetate salt] | > 128 | 0.38 | ≤ 0.06 µg/mL | ≤ 0.06 µg/mL | ≤ 0.06 µg/mL | ≤ 0.06 µg/mL | ≤ 0.06 µg/mL | ≤ 0.06 µg/mL | ≤ 0.06 µg/mL | ≤ 0.06 µg/mL
